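The compound was tested at five concentrations on cells cultured in 96-well plates, with a 48-hour exposure period. The concentration for full growth arrest is given as TGI.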

Among the test systems are SF-268 CNS; RPMI-8226 leukemia; BT-549 breast; SK-MEL-28 melanoma; HL-60(TB) leukemia; CCRF-CEM leukemia; SN12C renal; MALME-3M melanoma; SK-MEL-5 melanoma; U251 CNS.
Holding throughout (assay): DTP human tumour cell line panel, 48 h

As to `COc1cc2c(cc1O)CCN(C)[C@H]2Cc1ccc(Oc2c(O)c(OC)cc3c2C[C@H]2c4c(c(OC)c(OC)c(OC)c4-3)CCN2C)cc1`, the TGI came out at 11.5 µM with SF-268 CNS; 5.09 µM with RPMI-8226 leukemia; 11.8 µM with BT-549 breast; 11.7 µM in the test with SK-MEL-28 melanoma; 10.6 µM with HL-60(TB) leukemia; 9.28 µM in the test on CCRF-CEM leukemia. In addition, the TGI with SN12C renal worked out at 10.7 µM; with MALME-3M melanoma, 13.6 µM; in the test with SK-MEL-5 melanoma, 7.65 µM; in the test with U251 CNS it was 9.05 µM.

Turning to `C/C(=N/NC(=S)N1CCN(C(=S)N/N=C(/C)c2ccccn2)CC1)c1ccccn1`, the concentration for total growth inhibition (TGI) in the test on SF-268 CNS was 57 µM; in the test with RPMI-8226 leukemia, > 100 µM; in the test with BT-549 breast, > 100 µM; in the test on SK-MEL-28 melanoma, > 100 µM; in the test on HL-60(TB) leukemia it was 1.98 µM; in the test with CCRF-CEM leukemia, > 100 µM. The total growth inhibition concentration (TGI) was > 100 µM in the test on SN12C renal, > 100 µM in the test on MALME-3M melanoma, > 80.7 µM in the test with SK-MEL-5 melanoma and > 100 µM with U251 CNS.

For the compound `COc1cc2c(cc1OC)C(=O)/C(=C/c1ccc(O)cc1)CC2`, the total growth inhibition concentration (TGI) in the test on SF-268 CNS, with RPMI-8226 leukemia, with BT-549 breast, in the test on SK-MEL-28 melanoma, with HL-60(TB) leukemia and with CCRF-CEM leukemia was > 10 µM in each case. The TGI in the test with SN12C renal, with MALME-3M melanoma, with SK-MEL-5 melanoma and in the test on U251 CNS was > 10 µM each time.

For `Cc1nc(Nc2nc3ccccc3[nH]2)nc(Cl)c1CCCl`, the TGI with SF-268 CNS, with RPMI-8226 leukemia, in the test on BT-549 breast, with SK-MEL-28 melanoma, with HL-60(TB) leukemia and in the test on CCRF-CEM leukemia was > 100 µM in each case. The TGI in the test with SN12C renal, with MALME-3M melanoma, in the test with SK-MEL-5 melanoma and with U251 CNS was > 100 µM throughout.

Turning to `COc1ccccc1NC(=S)N/N=C/c1ccccn1`, the TGI was 3.59 µM in the test on SF-268 CNS; > 22.6 µM with RPMI-8226 leukemia; 77 µM in the test with BT-549 breast; > 46.4 µM with SK-MEL-28 melanoma; 0.693 µM with HL-60(TB) leukemia; > 23.1 µM in the test with CCRF-CEM leukemia. For the same compound, the concentration for total growth inhibition (TGI) with SN12C renal is 5.15 µM; in the test with MALME-3M melanoma, > 24.3 µM; in the test with SK-MEL-5 melanoma, 2.71 µM; with U251 CNS, 12.5 µM.

In the case of `COC(=O)c1cc(C)ccc1/C=C1\Cc2c(C)cc(C)cc2C1=O`, the concentration for total growth inhibition (TGI) in the test on SF-268 CNS was 37.1 µM; in the test with RPMI-8226 leukemia, > 100 µM; in the test on BT-549 breast, > 75.7 µM; in the test with SK-MEL-28 melanoma, > 100 µM; in the test on HL-60(TB) leukemia, > 100 µM; in the test on CCRF-CEM leukemia it was > 100 µM. Moreover, the TGI with SN12C renal was > 100 µM; in the test on MALME-3M melanoma it was > 100 µM; in the test with SK-MEL-5 melanoma it was > 100 µM; in the test on U251 CNS, 42.9 µM.

Consider `CCN1CCCn2c(=O)[nH]c3cc(Br)cc1c32`, for which the TGI in the test on SF-268 CNS, in the test on RPMI-8226 leukemia, in the test with BT-549 breast, with SK-MEL-28 melanoma, with HL-60(TB) leukemia and in the test with CCRF-CEM leukemia was > 100 µM each time. In addition, the TGI in the test on SN12C renal, in the test with MALME-3M melanoma, with SK-MEL-5 melanoma and with U251 CNS was > 100 µM each time.

`CC(=O)O[C@H]1CCC2[C@@H]3CCC4NC(=O)C(C#N)C[C@]4(C)C3CC[C@@]21C` (stereo not given in full): the TGI in the test with SF-268 CNS, with RPMI-8226 leukemia, in the test on BT-549 breast, in the test on SK-MEL-28 melanoma, with HL-60(TB) leukemia and in the test with CCRF-CEM leukemia was > 10 µM in each case. Also, the concentration for total growth inhibition (TGI) in the test on SN12C renal, with MALME-3M melanoma, with SK-MEL-5 melanoma and in the test with U251 CNS was > 10 µM in each case.

Regarding `O=[N+]([O-])c1cc(F)ccc1Sc1ccccc1`, the TGI with SF-268 CNS, in the test on RPMI-8226 leukemia, with BT-549 breast, with SK-MEL-28 melanoma, in the test with HL-60(TB) leukemia and in the test on CCRF-CEM leukemia was > 10 µM each time. The TGI in the test with SN12C renal, in the test on MALME-3M melanoma, with SK-MEL-5 melanoma and in the test with U251 CNS was > 10 µM each time.

Regarding `O=C1/C(=C/c2ccc(O)cc2)CCC1CNc1ccccc1` (stereo not given), the TGI in the test with SF-268 CNS was found to be 28.2 µM; in the test with RPMI-8226 leukemia, 5.12 µM; in the test on BT-549 breast, 27.6 µM; in the test on SK-MEL-28 melanoma it was 29.9 µM; in the test with HL-60(TB) leukemia it was 4.91 µM; with CCRF-CEM leukemia, 4.54 µM. The TGI was determined as 29.2 µM in the test on SN12C renal, 30.6 µM with MALME-3M melanoma, 30.6 µM in the test on SK-MEL-5 melanoma and 30.3 µM in the test with U251 CNS.

`NNC(=O)Cn1ccnn1`: the TGI in the test on SF-268 CNS, in the test with RPMI-8226 leukemia, in the test with BT-549 breast, in the test with SK-MEL-28 melanoma, in the test on HL-60(TB) leukemia and in the test with CCRF-CEM leukemia was > 100 µM each time. The TGI in the test with SN12C renal, in the test on MALME-3M melanoma, in the test on SK-MEL-5 melanoma and with U251 CNS was > 100 µM each time.

As for `C[C@]12CC[C@H]3[C@@H](CCC4=C(Br)C(=O)C=C[C@@]43O)[C@@H]1CCC2=O`, the total growth inhibition concentration (TGI) was > 100 µM in the test on SF-268 CNS; > 100 µM with RPMI-8226 leukemia; 81.1 µM in the test with BT-549 breast; > 100 µM in the test on SK-MEL-28 melanoma; 81.6 µM with HL-60(TB) leukemia; 31.7 µM in the test with CCRF-CEM leukemia. Further, the TGI with SN12C renal, in the test on MALME-3M melanoma, in the test with SK-MEL-5 melanoma and in the test with U251 CNS was > 100 µM throughout.

Turning to `COc1cc(C)cc2c(-c3c(O)cc(O)c4c3C[C@H](C)N[C@H]4C)cc(-c3cc(-c4c(O)cc(O)c5c4C[C@H](C)N[C@H]5C)c4cc(C)cc(OC)c4c3O)c(O)c12`, the TGI in the test with SF-268 CNS, in the test with RPMI-8226 leukemia, in the test on BT-549 breast, with SK-MEL-28 melanoma, in the test on HL-60(TB) leukemia and in the test on CCRF-CEM leukemia was > 100 µM throughout. Moreover, the TGI with SN12C renal, in the test on MALME-3M melanoma, with SK-MEL-5 melanoma and in the test with U251 CNS was > 100 µM in each case.

As for `O=C1c2ccccc2C(=O)c2nn(N=P(CP(=Nn3nc4c(n3)C(=O)c3ccccc3C4=O)(c3ccccc3)c3ccccc3)(c3ccccc3)c3ccccc3)nc21`, the TGI with SF-268 CNS, in the test with RPMI-8226 leukemia, in the test with BT-549 breast, in the test on SK-MEL-28 melanoma, with HL-60(TB) leukemia and in the test on CCRF-CEM leukemia was > 100 µM throughout. Moreover, the total growth inhibition concentration (TGI) with SN12C renal, in the test on MALME-3M melanoma, in the test on SK-MEL-5 melanoma and in the test on U251 CNS was > 100 µM each time.

Regarding `O=NN1CCCS1(=O)=O`, the total growth inhibition concentration (TGI) with SF-268 CNS, in the test on RPMI-8226 leukemia, in the test with BT-549 breast, in the test with SK-MEL-28 melanoma, in the test on HL-60(TB) leukemia and in the test with CCRF-CEM leukemia was > 100 µM in each case. Moreover, the concentration for total growth inhibition (TGI) in the test on SN12C renal, with MALME-3M melanoma, in the test on SK-MEL-5 melanoma and with U251 CNS was > 100 µM throughout.

As to `O=C(O)CCSC1=NCCN1`, the TGI in the test with SF-268 CNS, in the test with RPMI-8226 leukemia, in the test with BT-549 breast, in the test with SK-MEL-28 melanoma, in the test on HL-60(TB) leukemia and with CCRF-CEM leukemia was > 100 µM throughout. Besides, the TGI in the test on SN12C renal, in the test with MALME-3M melanoma, with SK-MEL-5 melanoma and in the test with U251 CNS was > 100 µM each time.

For the compound `Cc1ccc(/C=N\NC(=O)c2ccncc2)s1`, the TGI in the test on SF-268 CNS, in the test on RPMI-8226 leukemia, with BT-549 breast, in the test with SK-MEL-28 melanoma, in the test with HL-60(TB) leukemia and with CCRF-CEM leukemia was > 100 µM each time. In addition, the concentration for total growth inhibition (TGI) with SN12C renal, with MALME-3M melanoma, with SK-MEL-5 melanoma and with U251 CNS was > 100 µM each time.

With `Clc1nc2c(C#Cc3ccccc3)ncnc2n1C1CCCCO1` (stereo not given), the TGI in the test on SF-268 CNS is 37.2 µM; with RPMI-8226 leukemia it was 35.8 µM; in the test with BT-549 breast, 49.7 µM; in the test with SK-MEL-28 melanoma, 91.3 µM; in the test on HL-60(TB) leukemia, 33.7 µM; in the test with CCRF-CEM leukemia it was > 100 µM. Besides, the TGI turned out to be 23 µM in the test on SN12C renal, 41.7 µM in the test on MALME-3M melanoma, 24.8 µM with SK-MEL-5 melanoma and 26.2 µM in the test with U251 CNS.

Take `CCN(CC)C1Oc2cc3c(cc2C(c2cc(OC)c(OC)c(OC)c2)C1C)OCO3` (stereo not given): the TGI was > 58.2 µM in the test on SF-268 CNS; 20.2 µM in the test with RPMI-8226 leukemia; > 58.4 µM in the test on BT-549 breast; 34.3 µM with SK-MEL-28 melanoma; 0.932 µM with HL-60(TB) leukemia; > 22.9 µM in the test on CCRF-CEM leukemia. Besides, the TGI with SN12C renal was > 53.8 µM; in the test on MALME-3M melanoma, > 64 µM; with SK-MEL-5 melanoma, 6.68 µM; in the test with U251 CNS, 6.89 µM.

As for `CC1CN=C(c2ccc(CN3CCC(C4CCN(Cc5ccc(C6=NCC(C)N6)cc5)CC4)CC3)cc2)N1` (stereo not given), the total growth inhibition concentration (TGI) in the test with SF-268 CNS is 53.7 µM; in the test on RPMI-8226 leukemia, 46.2 µM; with BT-549 breast it was > 100 µM; in the test on SK-MEL-28 melanoma, > 100 µM; with HL-60(TB) leukemia it was > 100 µM; in the test with CCRF-CEM leukemia, 38.2 µM. Besides, the TGI was 37 µM with SN12C renal, 63 µM in the test on MALME-3M melanoma, > 100 µM in the test on SK-MEL-5 melanoma and 29.6 µM in the test with U251 CNS.

As to `CC(C)(Cc1ccccc1)N1C(=O)N1C(C)(C)Cc1ccccc1`, the concentration for total growth inhibition (TGI) in the test on SF-268 CNS was > 100 µM; in the test with RPMI-8226 leukemia, 38.5 µM; in the test with BT-549 breast, > 100 µM; with SK-MEL-28 melanoma, > 100 µM; in the test on HL-60(TB) leukemia it was 41.7 µM; in the test with CCRF-CEM leukemia it was 61.3 µM. Moreover, the TGI with SN12C renal is > 100 µM; in the test on MALME-3M melanoma, 98.4 µM; with SK-MEL-5 melanoma it was 43.4 µM; with U251 CNS, > 100 µM.

For the compound `O=C(O)COc1cc(-c2ccccc2)nc2ccccc12`, the concentration for total growth inhibition (TGI) in the test on SF-268 CNS, in the test with RPMI-8226 leukemia, with BT-549 breast, with SK-MEL-28 melanoma, in the test on HL-60(TB) leukemia and in the test with CCRF-CEM leukemia was > 100 µM in each case. The total growth inhibition concentration (TGI) in the test on SN12C renal, with MALME-3M melanoma, in the test on SK-MEL-5 melanoma and in the test with U251 CNS was > 100 µM throughout.
